{"source": "patent US20170312260A1", "about": "(LAUNX BIOMEDICAL CO., LTD., priority 2014, published 2017)", "tested_on": "cancers cell lines", "assay": "Inhibition test on all kinds of cancer cell lines (overall statement)", "format": "cell-based", "settings": "several / various cancer cell lines, Table 18, FIG. 1", "description": "The cell numbers were counted and reseed as 2×10^6 in cell culture plate/flask. Then, the culture medium were added to a volume of 10 ml, and the cells were cultured for 2-3 days. Then, the cells were suspended for loading into 96-well plates. The number of cells was 3000 and the volume of the culture medium was 100 μl each well.\nRemoving the original culture medium from 96-well plate. Then add 100 μl of commercially drug at a concentration of 10 μM per well. After 72 hours, add the diluted WST-1 reagent to the well with 100 μl/well, and the diluted WST-1 reagent was acquired from the dilution of 9:1 medium and WST-1 stock reagent. Finally, the total volume of each well was 200 μl/well. Culture the 96-well plate at 37° C. for 30 to 90 minutes. Detecting and calculate the survival rate of each cancer cells with an ELISA reader at OD450 nm.\nAs a result in the experiments of the present invention."}
{"smiles": "Fc1ccc([C@@H]2CCNC[C@H]2COc2ccc3c(c2)OCO3)cc1", "note": "[Paroxetine]", "values": [{"measurement": "inhibitory effect on cancer cell lines (in words)", "result": "significant inhibitory effect"}]}
